Non-standard residues stand in square brackets, D forms with d. Residues, ends and D or L forms follow the SMILES beside them. Tyr(3,5-I2) = N[C@@H](Cc1cc(I)c(O)c(I)c1)C(=O)O; Oic = O=C(O)[C@@H]1C[C@@H]2CCCC[C@@H]2N1; d2Nal = N[C@H](Cc1ccc2ccccc2c1)C(=O)O; Hyp = O=C(O)[C@@H]1C[C@@H](O)CN1; dTic = O=C(O)[C@H]1Cc2ccccc2CN1; 2Thi = N[C@@H](Cc1cccs1)C(=O)O; Ahx = NCCCCCC(=O)O; Sar = CNCC(=O)O
Legend:
Assay in all cases: cell-based
[1] = biological target: T1, B2 receptor (Oryctolagus cuniculus, UniProt Q28642)
T1 sequence (Q28642 1-367): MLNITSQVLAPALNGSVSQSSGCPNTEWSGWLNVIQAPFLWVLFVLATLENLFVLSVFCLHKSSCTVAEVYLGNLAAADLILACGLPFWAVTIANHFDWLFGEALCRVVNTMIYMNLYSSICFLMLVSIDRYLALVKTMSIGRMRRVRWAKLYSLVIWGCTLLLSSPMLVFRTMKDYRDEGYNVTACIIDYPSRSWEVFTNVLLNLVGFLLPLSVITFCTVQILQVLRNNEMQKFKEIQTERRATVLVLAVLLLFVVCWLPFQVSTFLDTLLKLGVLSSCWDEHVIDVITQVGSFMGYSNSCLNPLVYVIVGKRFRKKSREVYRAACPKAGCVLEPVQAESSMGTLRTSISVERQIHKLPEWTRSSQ
In short: (§1)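 Isolated rabbit jugular vein (captopril 1 μmol/L), guinea pig ileum, endothelium-free rabbit aorta and human umbilical vein, in Krebs at 37 °C, with isometric tension recorded. Agonism was tested at 10 μg/mL.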

[2] = biological target: T2, B1 receptor (Oryctolagus cuniculus, UniProt P48748); conditions: Rb.A. pA2, apparent affinity as antagonist vs desArg9BK; antagonist applied 10 min before; Inactive = no detectable antagonistic effect at ≦ 10 μg/ml
T2 sequence (P48748 1-352): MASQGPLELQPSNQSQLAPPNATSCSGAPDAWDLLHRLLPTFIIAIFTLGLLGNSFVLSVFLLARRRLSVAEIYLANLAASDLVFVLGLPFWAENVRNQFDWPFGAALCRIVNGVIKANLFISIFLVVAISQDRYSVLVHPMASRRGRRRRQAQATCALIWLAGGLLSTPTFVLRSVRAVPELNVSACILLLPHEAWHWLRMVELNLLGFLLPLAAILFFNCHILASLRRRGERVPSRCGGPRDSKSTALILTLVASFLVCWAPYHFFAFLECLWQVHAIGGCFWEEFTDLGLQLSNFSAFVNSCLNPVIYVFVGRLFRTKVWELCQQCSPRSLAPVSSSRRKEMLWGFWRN
In short: as §1

[3] = biological target: T3, B2 receptor (Cavia porcellus, UniProt O70526); conditions: for G.P.I. pA2: vs BK, Inactive = no detectable antagonistic effect at ≦ 10 μg/ml, F.ag. full agonist, P.ag. partial agonist
T3 sequence (O70526 1-372): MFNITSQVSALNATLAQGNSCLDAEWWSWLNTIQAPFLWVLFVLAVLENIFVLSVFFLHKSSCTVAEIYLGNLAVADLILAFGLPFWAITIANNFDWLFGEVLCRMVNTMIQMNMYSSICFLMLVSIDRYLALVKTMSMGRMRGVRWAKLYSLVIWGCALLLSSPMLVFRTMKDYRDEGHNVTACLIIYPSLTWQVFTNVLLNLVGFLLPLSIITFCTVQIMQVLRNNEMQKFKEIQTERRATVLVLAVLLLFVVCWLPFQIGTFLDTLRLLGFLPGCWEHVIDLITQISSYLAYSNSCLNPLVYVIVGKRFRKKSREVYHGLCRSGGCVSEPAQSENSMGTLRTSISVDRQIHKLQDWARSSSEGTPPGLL
In short: as §1

Row | SMILES | Kb [1] [nM] | Kb [2] [nM] | G.P.I. pA2 [3] | Kb [3] [nM]
1 | CC[C@H](C)[C@H](NC(=O)[C@@H](Cc1ccc2ccccc2c1)NC(=O)[C@H](CO)NC(=O)[C@H](Cc1ccccc1)NC(=O)CNC(=O)[C@@H]1CCCN1C(=O)[C@@H]1CCCN1C(=O)[C@H](CCCNC(=N)N)NC(=O)[C@H](CCCCN)NC(=O)CCCCCNC(=O)[C@H](Cc1ccc(O)cc1)NC(=O)CNC)C(=O)O [Compound 29, SarTyrεAhxLys(D-βNal^7, Ile^8)desArg^9BK] (H-[Sar]Y[Ahx]KRPPGFS[d2Nal]I-OH; N-terminus and C-terminus assumed) | 6310 | 3.31 | Inactive | –
2 | CC[C@H](C)[C@H](NC(=O)[C@@H](Cc1ccc2ccccc2c1)NC(=O)[C@H](CO)NC(=O)[C@H](Cc1ccccc1)NC(=O)CNC(=O)[C@@H]1CCCN1C(=O)[C@@H]1CCCN1C(=O)[C@H](CCCNC(=N)N)NC(=O)[C@H](CCCCN)NC(=O)CCCCCNC(=O)[C@H](Cc1cc(I)c(O)c(I)c1)NC(=O)CNC)C(=O)O [Compound 30, SarTyr(3,5-I)εAhxLys(D-βNal^7, Ile^8)desArg^9BK] (H-[Sar][Tyr(3,5-I2)][Ahx]KRPPGFS[d2Nal]I-OH; N-terminus and C-terminus assumed) | 7410 | 7.24 | Inactive | –
3 | N=C(N)NCCC[C@@H](N)C(=O)N[C@@H](CCCNC(=N)N)C(=O)N1CCC[C@H]1C(=O)N1C[C@H](O)C[C@H]1C(=O)NCC(=O)N[C@@H](Cc1cccs1)C(=O)N[C@@H](CO)C(=O)N1Cc2ccccc2C[C@@H]1C(=O)N1[C@H](C(=O)O)C[C@@H]2CCCC[C@@H]21 [Compound 31, D-Arg(Hyp^3, Thi^5, D-Tic^7, Oic^8)desArg^9BK, reference compound] (H-[dR]RP[Hyp]G[2Thi]S[dTic][Oic]-OH; N-terminus and C-terminus assumed) | 41.7 | 158 | – | > 7590
